In one data set the target is T1, TrkA kinase (Homo sapiens, UniProt P04629).
T1 construct: purchased Upstate, USA
Nature of the data set: In vitro TrkA inhibitory activity using TR-FRET assay. Format: biochemical. Conditions: 5 ng TrkA, 500 μM ATP. Summed up: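 Kinase (5 ng) was preincubated with compound for 30 min at 20-35° C before adding 40 nM ULight poly GT and 500 μM ATP; stopped with EDTA after 30 min. Eu-anti-phosphotyrosine antibody (0.5 nM) was read at 615/665 nm with 1% DMSO final. Compounds showing >25% inhibition at 1 μM went to sigmoidal dose-response IC50 fitting.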

The nature of data set [1]: Metabolic stability using Human Liver Microsomes (HLM). Format: in vitro ADME. Conditions: pooled human liver microsomes, compound 1 μM, 0.3 mg/ml microsomal protein, 1 mM NADPH. Here is the method: Stability Protocol: Metabolic Stability Using Rat Liver Microsomes (RLM) and Human Liver Microsomes (HLM).
This assay was performed using pooled male rat liver microsomes (In-house prepared as per SOP), Pooled Human liver microsomes (XENOTECH; Batch No— H0630-1110189)). The 100 μl reaction contains the compounds at 1 μM, 0.3 mg/ml microsomal protein and both the co-factors (1 mM NADPH) in buffer and the mixture was incubated at different time points (0, 15, 30, 45, 60, & 90 minutes). The reaction was stopped by the addition of equal volume of acetonitrile containing internal standard (Telmesartin). The precipitated protein was removed by centrifugation and the supernatant were analyzed LC/MS-MS method. The percent parent compound remaining was quantified by analysis using following formula (% parent compound remaining=(peak area at Time x/peak area at T0)×100. The intrinsic clearance was calculated using the following formula. CLint,app: (0.693/in vitro t½)(incubation volume/mg of microsomal protein)(45 mg microsomal protein/gram of liver)(20^a g of liver/kg body weight) • a: 20 and 45 g of liver/kg of body weight were used for human and rat, respectively (Lu C et al., DMD, 2006). Bio-analysis: It was performed in Multiple Reaction Monitoring mode (negative mode) using Applied Biosystems API 4000 coupled to Agilent Technologies 1100 series HPLC on a reverse phase column (Zorbax Eclipse XDB C18, 50×4.6 mm, 5 μm). Celecoxib was used as internal standard both in in-vitro and in-vivo experiments. Mobile phase used 0.05% […] water and acetonitrile (10:90) with a flow rate of 0.6 ml/minute. The injection volume was kept as 10 μl.
(In general: Microsomes from liver hold many membrane-bound enzymes, among them those of drug oxidation.)

Where [2] appears, read: read-out: TrkA inhibition in-vitro IC50.
Where [3] appears, read: both bounds given in nm, read-out: TrkA inhibitory activity in-vitro IC50.

Structures are written as SMILES. Like-named read-outs stand apart in the source and are kept apart here.

In general, IC50 refers to the concentration that gives 50% inhibition. As usually defined, the half-life is the time needed for the level to fall by half in the phase considered. A lower half-life goes with fast loss.

T1 sequence (P04629 33-796): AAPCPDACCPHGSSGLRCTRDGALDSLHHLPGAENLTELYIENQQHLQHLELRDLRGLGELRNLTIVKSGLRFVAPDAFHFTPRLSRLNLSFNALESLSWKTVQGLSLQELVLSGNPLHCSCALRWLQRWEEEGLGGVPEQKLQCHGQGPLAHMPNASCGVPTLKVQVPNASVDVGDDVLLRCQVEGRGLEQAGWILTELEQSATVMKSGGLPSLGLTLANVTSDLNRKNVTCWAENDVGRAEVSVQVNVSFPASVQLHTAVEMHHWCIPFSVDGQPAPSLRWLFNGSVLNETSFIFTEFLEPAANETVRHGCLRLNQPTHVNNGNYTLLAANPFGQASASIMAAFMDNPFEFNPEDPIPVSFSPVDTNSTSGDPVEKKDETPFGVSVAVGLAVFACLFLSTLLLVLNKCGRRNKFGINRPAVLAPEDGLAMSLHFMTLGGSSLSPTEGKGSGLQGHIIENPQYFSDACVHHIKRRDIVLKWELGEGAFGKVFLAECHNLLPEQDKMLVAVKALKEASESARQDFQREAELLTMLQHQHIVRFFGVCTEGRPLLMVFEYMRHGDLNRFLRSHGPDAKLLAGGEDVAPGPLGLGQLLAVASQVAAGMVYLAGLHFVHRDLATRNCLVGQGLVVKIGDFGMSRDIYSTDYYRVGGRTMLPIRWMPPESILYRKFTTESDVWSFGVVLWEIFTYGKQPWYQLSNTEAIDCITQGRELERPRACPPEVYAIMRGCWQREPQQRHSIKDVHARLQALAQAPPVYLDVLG

On to `CCCS(=O)(=O)NC(=O)c1cnn2ccc(N3CCC[C@@H]3c3cc(F)ccc3F)cc12` [Example 10, (R)-5-(2-(2,5-difluorophenyl)pyrrolidin-1-yl)-N-(propylsulfonyl)pyrazolo[1,5-a] pyridine-3-carboxamide], for which the IC50 on TrkA kinase (setting [2]) is at most 50 nM. For the same compound, the half-life at 1 μM in data set [1] is over 1.33 h.

`CC(C)(C)S(=O)(=O)NC(=O)c1cnn2ccc(N3CCC[C@@H]3c3cc(F)ccc3OC3CCOCC3)cc12` [Example 124, (R)-N-(tert-butylsulfonyl)-5-(2-(5-fluoro-2-((tetrahydro-2H-pyran-4-yl)oxy)phenyl)pyrrolidin-1-yl)pyrazolo[1,5-a]pyridine-3-carboxamide] had a half-life at 1 μM in data set [1] of over 1.33 h.

Consider `CCN(C)S(=O)(=O)NC(=O)c1cnn2ccc(N3CCCC3c3cc(F)cc4c3OCCCO4)cc12` (single isomer, unassigned) [Example 96, N-(N-ethyl-N-methylsulfamoyl)-5-(2-(8-fluoro-3,4-dihydro-2H-benzo[b][1,4]dioxepin-6-yl)pyrrolidin-1-yl)pyrazolo[1,5-a]pyridine-3-carboxamide], for which the half-life at 1 μM in data set [1] was over 1.33 h.

For the compound `CC(C)(C)S(=O)(=O)NC(=O)c1cnn2ccc(N3CCC[C@@H]3c3cc(F)ccc3F)cc12` [Example 2, (R)-N-(tert-butylsulfonyl)-5-(2-(2,5-difluorophenyl)pyrrolidin-1-yl) pyrazolo[1,5-a]pyridine-3-carboxamide], the IC50 at TrkA kinase (setting [2]) was at most 50 nM. Besides, the half-life at 1 μM in data set [1] was over 1.33 h.

As for `O=C(NS(=O)(=O)c1ccc(F)cc1)c1cnn2ccc(N3CCC[C@@H]3c3cc(F)ccc3F)cc12` [Example 1, (R)-5-(2-(2,5-difluorophenyl)pyrrolidin-1-yl)-N-((4-fluorophenyl)sulfonyl)pyrazolo[1,5-a]pyridine-3-carboxamide], at TrkA kinase (setting [3]), the IC50 lay within 100 to 500 nM. The compound also had a half-life at 1 μM in data set [1] of over 1.33 h.

Consider `CCN(C)S(=O)(=O)NC(=O)c1cnn2ccc(N3CCC[C@@H]3c3cc(F)ccc3OC)cc12` [Example 91, (R)-N-(N-ethyl-N-methylsulfamoyl)-5-(2-(5-fluoro-2-methoxyphenyl)pyrrolidin-1-yl)pyrazolo[1,5-a]pyridine-3-carboxamide], for which the IC50 on TrkA kinase (setting [2]) is at most 50 nM. For the same compound, the half-life at 1 μM in data set [1] was over 1.33 h.

Consider `O=C(NS(=O)(=O)Cc1ccccc1)c1cnn2ccc(N3CCC[C@@H]3c3cc(F)ccc3F)cc12` [Example 40, (R)-N-(benzylsulfonyl)-5-(2-(2,5-difluorophenyl)pyrrolidin-1-yl)pyrazolo[1,5-a]pyridine-3-carboxamide], for which, on TrkA kinase (setting [2]), the IC50 is at most 50 nM. Moreover, in data set [1], the half-life at 1 μM is over 1.33 h.

`CC(C)(C)S(=O)(=O)NC(=O)c1cnn2ccc(N3C[C@@H](F)C[C@@H]3c3cccc(F)c3)c(F)c12` [Example 121, N-(tert-butylsulfonyl)-4-fluoro-5-((2R,4S)-4-fluoro-2-(3-fluorophenyl)pyrrolidin-1-yl)pyrazolo[1,5-a]pyridine-3-carboxamide] came in with a half-life at 1 μM in data set [1] of over 1.33 h.

In the case of `CC(C)S(=O)(=O)NC(=O)c1cnn2ccc(N3C[C@@H](F)C[C@@H]3c3cccc(F)c3)c(F)c12` [Example 122, 4-fluoro-5-((2R,4S)-4-fluoro-2-(3-fluorophenyl)pyrrolidin-1-yl)-N-(isopropylsulfonyl) pyrazolo[1,5-a]pyridine-3-carboxamide], the half-life at 1 μM in data set [1] was over 1.33 h.

Take `CC1(S(=O)(=O)NC(=O)c2cnn3ccc(N4C[C@@H](F)C[C@@H]4c4cc(F)ccc4F)cc23)CC1` [Example 74, 5-((2R,4S)-2-(2,5-difluorophenyl)-4-fluoropyrrolidin-1-yl)-N-((1-methylcyclopropyl)sulfonyl)pyrazolo[1,5-a]pyridine-3-carboxamide]: on TrkA kinase (setting [2]), the IC50 was at most 50 nM. In addition, in data set [1], the half-life at 1 μM is over 1.33 h.

Regarding `CC(C)(C)S(=O)(=O)NC(=O)c1cnn2ccc(N3C[C@@H](F)C[C@@H]3c3cc(F)ccc3F)cc12` (single isomer, unassigned) [Example 52], the IC50 on TrkA kinase (setting [2]) is at most 50 nM. In data set [1], this compound yielded a half-life at 1 μM of over 1.33 h.

In the case of `CCN(C)S(=O)(=O)NC(=O)c1cnn2ccc(N3CCC[C@@H]3c3cc(F)cc(O[C@@H]4CCOC4)c3)cc12` [Example 106, N-(N-ethyl-N-methylsulfamoyl)-5-((R)-2-(3-fluoro-5-(((R)-tetrahydrofuran-3-yl)oxy)phenyl)pyrrolidin-1-yl)pyrazolo[1,5-a]pyridine-3-carboxamide], the half-life at 1 μM in data set [1] is over 1.33 h.

In data set [1], `CC1(S(=O)(=O)NC(=O)c2cnn3ccc(N4CCC[C@@H]4c4cc(F)ccc4F)cc23)CC1` [Example 38, (R)-5-(2-(2,5-difluorophenyl)pyrrolidin-1-yl)-N-((1-methylcyclopropyl)sulfonyl)pyrazolo[1,5-a] pyridine-3-carboxamide] gave a half-life at 1 μM of over 1.33 h.

Turning to `CC(C)(C)S(=O)(=O)NC(=O)c1cnn2ccc(N3CCC[C@@H]3c3cc(F)ccc3OCCF)cc12` [Example 57, (R)-N-(tert-butylsulfonyl)-5-(2-(5-fluoro-2-(2-fluoroethoxy)phenyl)pyrrolidin-1-yl) pyrazolo[1,5-a]pyridine-3-carboxamide], the IC50 at TrkA kinase (setting [2]) was at most 50 nM. Also, in data set [1], the half-life at 1 μM was over 1.33 h.

Turning to `O=C(NS(=O)(=O)c1ccc(N2CC[C@H](O)C2)nc1)c1cnn2ccc(N3CCC[C@@H]3c3cc(F)ccc3F)cc12` [Example 25, 5-((R)-2-(2,5-difluorophenyl)pyrrolidin-1-yl)-N-((6-((S)-3-hydroxypyrrolidin-1-yl)pyridin-3-yl)sulfonyl)pyrazolo[1,5-a] pyridine-3-carboxamide], the IC50 at TrkA kinase (setting [2]) was at most 50 nM. In data set [1], this compound had a half-life at 1 μM of over 1.33 h.

For the compound `NS(=O)(=O)NC(=O)c1cnn2ccc(N3C[C@@H](F)C[C@@H]3c3cccc(F)c3)c(F)c12` [Example 107, 4-fluoro-5-((2R,4S)-4-fluoro-2-(3-fluorophenyl)pyrrolidin-1-yl)-N-sulfamoylpyrazolo[1,5-a]pyridine-3-carboxamide], the half-life at 1 μM in data set [1] is over 1.33 h.

Take `CCOc1ccc(F)cc1[C@H]1CCCN1c1ccn2ncc(C(=O)NS(=O)(=O)C(C)(C)C)c2c1` [Example 45, (R)-N-(tert-butylsulfonyl)-5-(2-(2-ethoxy-5-fluorophenyl)pyrrolidin-1-yl)pyrazolo[1,5-a]pyridine-3-carboxamide]: the IC50 on TrkA kinase (setting [2]) is 50 to 100 nM. The compound also returned a half-life at 1 μM in data set [1] of over 1.33 h.

Consider `COc1ccc(F)cc1[C@H]1CCCN1c1ccn2ncc(C(=O)NS(=O)(=O)C(C)(C)C)c2c1` [Example 42, (R)-N-(tert-butylsulfonyl)-5-(2-(5-fluoro-2-methoxyphenyl)pyrrolidin-1-yl)pyrazolo[1,5-a] pyridine-3-carboxamide], for which the half-life at 1 μM in data set [1] was over 1.33 h.

As to `Cc1ccccc1S(=O)(=O)NC(=O)c1cnn2ccc(N3CCC[C@@H]3c3cc(F)ccc3F)cc12` [Example 39, (R)-5-(2-(2,5-difluorophenyl)pyrrolidin-1-yl)-N-(o-tolylsulfonyl)pyrazolo[1,5-a]pyridine-3-carboxamide], the half-life at 1 μM in data set [1] is over 1.33 h.

As for `CN(C)S(=O)(=O)NC(=O)c1cnn2ccc(N3C[C@@H](F)C[C@@H]3c3cc(F)ccc3F)cc12` [Example 78, 5-((2R,4S)-2-(2,5-difluorophenyl)-4-fluoropyrrolidin-1-yl)-N-(N,N-dimethylsulfamoyl) pyrazolo[1,5-a]pyridine-3-carboxamide], the IC50 at TrkA kinase (setting [2]) is at most 50 nM. Also, in data set [1], the half-life at 1 μM is over 1.33 h.

With `CC(C)(C)S(=O)(=O)NC(=O)c1cnn2ccc(N3CCCC3c3cc(F)cc4c3OCCO4)cc12` (single isomer, unassigned) [Example 50, N-(tert-butylsulfonyl)-5-(2-(7-fluoro-2,3-dihydrobenzo [b][1,4]dioxin-5-yl)pyrrolidin-1-yl)pyrazolo[1,5-a]pyridine-3-carboxamide], on TrkA kinase (setting [3]), the IC50 was in the range of 100 to 500 nM. The same compound had a half-life at 1 μM in data set [1] of over 1.33 h.

`CCN(C)S(=O)(=O)NC(=O)c1cnn2ccc(N3C[C@@H](F)C[C@@H]3c3cccc(F)c3)c(F)c12` [Example 102, N-(N-ethyl-N-methylsulfamoyl)-4-fluoro-5-((2R,4S)-4-fluoro-2-(3-fluorophenyl)pyrrolidin-1-yl)pyrazolo[1,5-a]pyridine-3-carboxamide] had a half-life at 1 μM in data set [1] of over 1.33 h.

Take `CC(C)S(=O)(=O)NC(=O)c1cnn2ccc(N3CCC[C@@H]3c3cc(F)cc(F)c3)cc12` [Example 71, (R)-5-(2-(3,5-difluorophenyl)pyrrolidin-1-yl)-N-(isopropylsulfonyl)pyrazolo[1,5-a] pyridine-3-carboxamide]: the IC50 on TrkA kinase (setting [3]) was in the range of 100 to 500 nM.

(Values after patent US10047087B2, “Substituted pyrazolo[1,5-A] pyridine as tropomyosin receptor kinase (TrK) inhibitors” (Dr. Reddy's Laboratories Ltd., priority 2011, dated 2018).)
